One assay has as its system persian speedwell. The assay can be described thus: Test Example 4: herbicidal effect by soil treatment (Table 19, symbol R). The format is in vivo, Persian speedwell (Veronica persica). Particulars: amount of applied herbicide 320 g/ha. Summed up:
(§1)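 Scoring uses the grading scale of an earlier test, three weeks post-application. Treatment consists of spraying a diluted emulsion formulation across the surface of sterilized diluvial soil in which seeds are buried near 1.5 cm deep; boxes are kept in a greenhouse between 25° C. and 30° C.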

Assay [1] has as its system windgrass. In words: Test Example 5: herbicidal effect by foliage application, plastic box (Table 20, symbol L). The format is in vivo, windgrass (Apera spica-venti). The following applies: foliage application, AAH 320 g/ha, three weeks after application. Summed up:
(§2)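 Post-emergence foliar test in sterilized diluvial soil. Compound applied as water-diluted emulsion at a predetermined rate to 14-day-old plants; evaluation at three weeks.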

Assay [2] relates to barnyard grass. In words: Test Example 4: herbicidal effect by soil treatment (Table 19, symbol H). The format is in vivo, barnyard grass (Echinochloa crus-galli). Particulars: amount of applied herbicide 320 g/ha. In short, it runs like this:
as §1

The test system of a further assay is chickweed. In words: Test Example 5: herbicidal effect by foliage application, plastic box (Table 20, symbol P). Particulars: foliage application, AAH 320 g/ha, three weeks after application. The format is in vivo, common chickweed (Stellaria media). In short, it runs like this: as §2
In assay [3] the test system is lambsquarters. In words: Test Example 5: herbicidal effect by foliage application, plastic box (Table 20, symbol O). The format is in vivo, lambsquarters (Chenopodium album). The following applies: foliage application, AAH 320 g/ha, three weeks after application. In short, it runs like this: as §2
The test system of the next assay is blackgrass. The assay can be described thus: Test Example 5: herbicidal effect by foliage application, plastic box (Table 20, symbol J). The format is in vivo, blackgrass (Alopecurus myosuroides). Particulars: foliage application, AAH 320 g/ha, three weeks after application. Summed up: as §2
Another assay has as its system late watergrass. The assay can be described thus: Test Example 1: herbicidal activity, application before weed generation under submerged conditions (Table 16, symbol A). The format is in vivo, late watergrass (Echinochloa oryzicola). Particulars: 320 g/ha applied herbicide. Summed up:
(§3)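 Submerged Wagner pots (alluvial soil, 4 cm water) sown with weed seeds and planted with 2.5-leaf rice seedlings; emulsifiable concentrate diluted in water applied to water surface on sowing day. Held in greenhouse at 25-30 °C; injury scored 0-5 by herbicidal rate after three weeks.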

A further assay relates to Chinese sprangletop. In words: Test Example 3: herbicidal effect by foliage application, Wagner pot (Table 18, symbol D). The class given is in vivo, chinese sprangletop (Leptochloa chinensis). Particulars: 320 g/ha. Summed up: (§4)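 Plants were sown in alluvial soil held under 0.1–0.5 cm standing water and grown 14 days in a greenhouse at 25–30 °C. An emulsifiable formulation, water-diluted to the set dose, was then sprayed onto the foliage, and effects were scored three weeks later using previously defined criteria.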

Assay [4] deals with Japanese bulrush. In words: Test Example 1: herbicidal activity, application before weed generation under submerged conditions (Table 16, symbol B). The following applies: 320 g/ha applied herbicide. The format is in vivo, Japanese bulrush (Schoenoplectus juncoides). Summed up: as §3
Assay [5] concerns barnyard grass. The assay can be described thus: Test Example 5: herbicidal effect by foliage application, plastic box (Table 20, symbol H). The class given is in vivo, barnyard grass (Echinochloa crus-galli). The following applies: foliage application, AAH 320 g/ha, three weeks after application. Summed up:
as §2

Assay [6] has as its system barnyard grass. In words: Test Example 3: herbicidal effect by foliage application, Wagner pot (Table 18, symbol H). The class given is in vivo, barnyard grass (Echinochloa crus-galli). Particulars: 320 g/ha. Summed up: as §4
For the next assay, the system named is southern crabgrass. In words: Test Example 4: herbicidal effect by soil treatment (Table 19, symbol F). The following applies: amount of applied herbicide 320 g/ha. The class given is in vivo, southern crabgrass (Digitaria ciliaris). In short, it runs like this:
as §1

Assay [7] concerns windgrass. The assay can be described thus: Test Example 4: herbicidal effect by soil treatment (Table 19, symbol L). The format is in vivo, windgrass (Apera spica-venti). The following applies: amount of applied herbicide 320 g/ha. Summed up: as §1
The test system of assay [8] is lambsquarters. In words: Test Example 4: herbicidal effect by soil treatment (Table 19, symbol O). The format is in vivo, lambsquarters (Chenopodium album). Particulars: amount of applied herbicide 320 g/ha. Summed up:
as §1

The test system of the next assay is redroot pigweed. The assay can be described thus: Test Example 5: herbicidal effect by foliage application, plastic box (Table 20, symbol N). Particulars: foliage application, AAH 320 g/ha, three weeks after application. The class given is in vivo, redroot pigweed (Amaranthus retroflexus). In short, it runs like this: as §2
Assay [9] deals with Japanese bulrush. The assay can be described thus: Test Example 2: herbicidal activity, application during weed generation under submerged conditions (Table 17, symbol B). The class given is in vivo, Japanese bulrush (Schoenoplectus juncoides). Particulars: AAH 320 g/ha; application during weed generation, submerged conditions. In short, it runs like this: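 Mixed weed seedlings in alluvial soil under a 4 cm water layer, greenhouse-grown at 25–30° C. Compound given as a diluted emulsion into the floodwater at the 1–2 leaf stage; response graded after three weeks.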

For `Cc1nn(C)c(=O)c(-c2c(-c3ccc4c(c3)OCCO4)sc3ccccc23)c1OC(=O)SC(C)(C)C` [1-092], the “herbicidal effect rating, R: persian speedwell” value (“herbicidal effect rating, R” for short) in the assay with persian speedwell is 4 (Herbicidal rate of 70% or more and less than 90%). For the same compound, the “L: windgrass, herbicidal effect” value in the assay on windgrass [1] was 0 (Herbicidal rate of 5% or less (almost no effect)). Besides, the “herbicidal effect rating, H: barnyard grass” value (from here on “herbicidal effect rating, H”) with barnyard grass [2] is 0 (Herbicidal rate of 5% or less (almost no effect)). For the same compound, the “P: chickweed, herbicidal effect” value with chickweed is listed as 5 (Herbicidal rate of 90% or more (almost completely withered)). Besides, in the assay on lambsquarters [3], the “O: lambsquarters, herbicidal effect” value is 3 (Herbicidal rate of 40% or more and less than 70%). In addition, the “J: blackgrass, herbicidal effect” value in the assay on blackgrass is reported as 0 (Herbicidal rate of 5% or less (almost no effect)). Also, in the assay on late watergrass, the “Herbicidal effect on A: late watergrass (grade 0-5)” value is 5 (Herbicidal rate of 90% or more (almost completely withered)). Further, the “herbicidal effect on D (Chinese sprangletop), rating 0-5” value (shortened to “herbicidal effect on D”) in the assay on Chinese sprangletop was 1 (Herbicidal rate of 5% or more and less than 20%). For the same compound, the “Herbicidal effect on B: Japanese bulrush (grade 0-5)” value (“Herbicidal effect on B” for short) in the assay on Japanese bulrush [4] was 3 (Herbicidal rate of 40% or more and less than 70%). In addition, the “H: barnyard grass, herbicidal effect” value with barnyard grass [5] is 3 (Herbicidal rate of 40% or more and less than 70%). The “herbicidal effect on H (barnyard grass), rating 0-5” value (“herbicidal effect on H” below) in the assay on barnyard grass [6] is 4 (Herbicidal rate of 70% or more and less than 90%). Moreover, in the assay with southern crabgrass, the “herbicidal effect rating, F: southern crabgrass” value (from here on “herbicidal effect rating, F”) is 0 (Herbicidal rate of 5% or less (almost no effect)). For the same compound, in the assay with windgrass [7], the “herbicidal effect rating, L: windgrass” value is given as 0 (Herbicidal rate of 5% or less (almost no effect)). The “herbicidal effect rating, O: lambsquarters” value (shortened to “herbicidal effect rating, O”) in the assay on lambsquarters [8] was 0 (Herbicidal rate of 5% or less (almost no effect)). Also, the “N: redroot pigweed, herbicidal effect” value in the assay on redroot pigweed is 0 (Herbicidal rate of 5% or less (almost no effect)). For the same compound, in the assay on Japanese bulrush [9], the “herbicidal effect rating, B: Japanese bulrush” value (shortened to “herbicidal effect rating, B”) was 1 (Herbicidal rate of 5% or more and less than 20%).

On to `Cc1nn(C)c(=O)c(-c2c(-c3ccc4c(c3)CCO4)sc3ccccc23)c1O` [1-101], for which, in the assay on persian speedwell, the “herbicidal effect rating, R” value is 5 (Herbicidal rate of 90% or more (almost completely withered)). Besides, in the assay with windgrass [1], the “L: windgrass, herbicidal effect” value is recorded as 5 (Herbicidal rate of 90% or more (almost completely withered)). In addition, in the assay on barnyard grass [2], the “herbicidal effect rating, H” value is given as 5 (Herbicidal rate of 90% or more (almost completely withered)). Besides, the “P: chickweed, herbicidal effect” value in the assay on chickweed was 5 (Herbicidal rate of 90% or more (almost completely withered)). The “O: lambsquarters, herbicidal effect” value in the assay with lambsquarters [3] was 4 (Herbicidal rate of 70% or more and less than 90%). The “J: blackgrass, herbicidal effect” value in the assay on blackgrass is 4 (Herbicidal rate of 70% or more and less than 90%). Further, the “Herbicidal effect on A: late watergrass (grade 0-5)” value in the assay with late watergrass is 4 (Herbicidal rate of 70% or more and less than 90%). Besides, the “herbicidal effect on D” value in the assay on Chinese sprangletop is listed as 5 (Herbicidal rate of 90% or more (almost completely withered)). In addition, in the assay on Japanese bulrush [4], the “Herbicidal effect on B” value is 5 (Herbicidal rate of 90% or more (almost completely withered)). Moreover, the “H: barnyard grass, herbicidal effect” value with barnyard grass [5] was 4 (Herbicidal rate of 70% or more and less than 90%). The “herbicidal effect on H” value in the assay on barnyard grass [6] was 5 (Herbicidal rate of 90% or more (almost completely withered)). The “herbicidal effect rating, F” value with southern crabgrass is 3 (Herbicidal rate of 40% or more and less than 70%). Also, the “herbicidal effect rating, L: windgrass” value with windgrass [7] was 4 (Herbicidal rate of 70% or more and less than 90%). For the same compound, the “herbicidal effect rating, O” value with lambsquarters [8] is recorded as 5 (Herbicidal rate of 90% or more (almost completely withered)). Besides, the “N: redroot pigweed, herbicidal effect” value in the assay on redroot pigweed was 4 (Herbicidal rate of 70% or more and less than 90%). In addition, in the assay on Japanese bulrush [9], the “herbicidal effect rating, B” value is reported as 5 (Herbicidal rate of 90% or more (almost completely withered)).

Turning to `CCCC(=O)Oc1c(C)nn(C)c(=O)c1-c1c(-c2ccc3c(c2)CCO3)sc2ccccc12` [1-102], the “herbicidal effect rating, R” value with persian speedwell is reported as 5 (Herbicidal rate of 90% or more (almost completely withered)). The “L: windgrass, herbicidal effect” value in the assay with windgrass [1] was 0 (Herbicidal rate of 5% or less (almost no effect)). Further, the “herbicidal effect rating, H” value with barnyard grass [2] was 3 (Herbicidal rate of 40% or more and less than 70%). Further, in the assay with chickweed, the “P: chickweed, herbicidal effect” value is on record as 5 (Herbicidal rate of 90% or more (almost completely withered)). For the same compound, the “O: lambsquarters, herbicidal effect” value in the assay with lambsquarters [3] is 4 (Herbicidal rate of 70% or more and less than 90%). Further, the “J: blackgrass, herbicidal effect” value in the assay on blackgrass is on record as 0 (Herbicidal rate of 5% or less (almost no effect)). In the assay on late watergrass, the “Herbicidal effect on A: late watergrass (grade 0-5)” value is 4 (Herbicidal rate of 70% or more and less than 90%). Besides, the “herbicidal effect on D” value in the assay with Chinese sprangletop is 3 (Herbicidal rate of 40% or more and less than 70%). In the assay with Japanese bulrush [4], the “Herbicidal effect on B” value was 5 (Herbicidal rate of 90% or more (almost completely withered)). Further, the “H: barnyard grass, herbicidal effect” value in the assay on barnyard grass [5] is 3 (Herbicidal rate of 40% or more and less than 70%). For the same compound, the “herbicidal effect on H” value in the assay with barnyard grass [6] is 4 (Herbicidal rate of 70% or more and less than 90%). For the same compound, the “herbicidal effect rating, F” value in the assay with southern crabgrass was 2 (Herbicidal rate of 20% or more and less than 40%). For the same compound, in the assay on windgrass [7], the “herbicidal effect rating, L: windgrass” value is 0 (Herbicidal rate of 5% or less (almost no effect)). The “herbicidal effect rating, O” value in the assay with lambsquarters [8] was 4 (Herbicidal rate of 70% or more and less than 90%). For the same compound, in the assay with redroot pigweed, the “N: redroot pigweed, herbicidal effect” value is recorded as 5 (Herbicidal rate of 90% or more (almost completely withered)). Moreover, in the assay with Japanese bulrush [9], the “herbicidal effect rating, B” value is 5 (Herbicidal rate of 90% or more (almost completely withered)).

For `Cc1nn(C)c(=O)c(-c2c(-c3cnc4ccccc4c3)sc3ccccc23)c1O` [1-108], the “herbicidal effect rating, R” value in the assay with persian speedwell is recorded as 0 (Herbicidal rate of 5% or less (almost no effect)). Also, the “L: windgrass, herbicidal effect” value in the assay on windgrass [1] was 0 (Herbicidal rate of 5% or less (almost no effect)). For the same compound, the “herbicidal effect rating, H” value with barnyard grass [2] is reported as 0 (Herbicidal rate of 5% or less (almost no effect)). In addition, in the assay with chickweed, the “P: chickweed, herbicidal effect” value was 2 (Herbicidal rate of 20% or more and less than 40%). The “O: lambsquarters, herbicidal effect” value in the assay with lambsquarters [3] was 2 (Herbicidal rate of 20% or more and less than 40%). Besides, the “J: blackgrass, herbicidal effect” value in the assay with blackgrass is 0 (Herbicidal rate of 5% or less (almost no effect)). Further, the “Herbicidal effect on A: late watergrass (grade 0-5)” value with late watergrass was 3 (Herbicidal rate of 40% or more and less than 70%). The “herbicidal effect on D” value with Chinese sprangletop was 3 (Herbicidal rate of 40% or more and less than 70%). Moreover, the “Herbicidal effect on B” value with Japanese bulrush [4] is 2 (Herbicidal rate of 20% or more and less than 40%). For the same compound, the “H: barnyard grass, herbicidal effect” value in the assay with barnyard grass [5] is recorded as 0 (Herbicidal rate of 5% or less (almost no effect)). Besides, in the assay with barnyard grass [6], the “herbicidal effect on H” value is 0 (Herbicidal rate of 5% or less (almost no effect)). In addition, the “herbicidal effect rating, F” value with southern crabgrass was 0 (Herbicidal rate of 5% or less (almost no effect)). Also, the “herbicidal effect rating, L: windgrass” value in the assay with windgrass [7] is listed as 0 (Herbicidal rate of 5% or less (almost no effect)). For the same compound, in the assay on lambsquarters [8], the “herbicidal effect rating, O” value was 3 (Herbicidal rate of 40% or more and less than 70%). The “N: redroot pigweed, herbicidal effect” value in the assay on redroot pigweed is 0 (Herbicidal rate of 5% or less (almost no effect)). Moreover, the “herbicidal effect rating, B” value in the assay with Japanese bulrush [9] is 2 (Herbicidal rate of 20% or more and less than 40%).

Values taken from US20230085307A1, “PYRIDAZINONE COMPOUND AND HERBICIDE” (NISSAN CHEMICAL CORPORATION, priority 2019, published 2023).
